From the NIST ThermoML archive (doi:10.1016/j.jct.2016.03.018) come the findings set out here.

For this data set the following is noted: Liquid, Closed cell (Static) method.

SMILES strings stand for the structures. Numbers after ± are expanded uncertainties.

Broadly, the vapor or sublimation pressure is the pressure of vapour in equilibrium with the condensed phase. In the case of `F/C=C\C(F)(F)F` [(Z)-1,3,3,3-tetrafluoro-1-propene], the “vapor or sublimation pressure” value is reported as 68.5 ± 1 kPa (273.15 K), 102.5 ± 1.1 kPa (283.15 K) and 148.9 ± 1.1 kPa (293.15 K).

For `CCC` [propane], the “vapor or sublimation pressure” value amounted to 244.1 ± 1.2 kPa (253.15 K); 345.1 ± 1.4 kPa (263.15 K); 474.4 ± 1.7 kPa (273.15 K); 636.4 ± 2.1 kPa (283.15 K); 836.3 ± 2.6 kPa (293.15 K).
